US9187467B2, “2-phenyl benzothiazole linked imidazole compounds as potential anticancer agents and process for the preparation thereof” (Council of Scientific and Industrial Research, priority 2012, dated 2015)

Assays:
Assay type in all cases: cell-based, human
DU-145 = assay: SRB anticancer assay, prostate; conditions: DU-145, 48 h
UACC-257 = assay: SRB anticancer assay, melanoma; conditions: UACC-257, 48 h
SR = assay: SRB anticancer assay, leukemia; conditions: 48 h
K-562 = assay: SRB anticancer assay, leukemia; conditions: K-562, 48 h
HT29 = assay: SRB anticancer assay, colon; conditions: HT29, 48 h
MCF7 = assay: SRB anticancer assay, breast; conditions: MCF7, 48 h
SK-MEL-5 = assay: SRB anticancer assay, melanoma; conditions: SK-MEL-5, 48 h
PC-3 = assay: SRB anticancer assay, prostate; conditions: PC-3, 48 h
ACHN = assay: SRB anticancer assay, renal; conditions: 48 h
MOLT-4 = assay: SRB anticancer assay, leukemia; conditions: MOLT-4, 48 h
UO-31 = assay: SRB anticancer assay, renal; conditions: UO-31, 48 h
BT-549 = assay: SRB anticancer assay, breast; conditions: BT-549, 48 h
CCRF-CEM = assay: SRB anticancer assay, leukemia; conditions: 48 h
SNB-75 = assay: SRB anticancer assay, CNS; conditions: SNB-75, 48 h
SN12C = assay: SRB anticancer assay, renal; conditions: 48 h
COLO 205 = assay: SRB anticancer assay, colon; conditions: COLO 205, 48 h
EKVX = assay: SRB anticancer assay, non-small lung; conditions: 48 h
HL-60 (TB) = assay: SRB anticancer assay, leukemia; conditions: HL-60 (TB), 48 h; read-out: GI50
SF-295 = assay: SRB anticancer assay, CNS; conditions: SF-295, 48 h
RXF 393 = assay: SRB anticancer assay, renal; conditions: RXF 393, 48 h
NCI-H226 = assay: SRB anticancer assay, non-small lung; conditions: NCI-H226, 48 h
HCC-2998 = assay: SRB anticancer assay, colon; conditions: HCC-2998, 48 h
HS 578T = assay: SRB anticancer assay, breast; conditions: 48 h
NCI-H460 = assay: SRB anticancer assay, non-small lung; conditions: NCI-H460, 48 h
MDA-MB-231/ATCC = assay: SRB anticancer assay, breast; conditions: MDA-MB-231/ATCC (row head MDA-MB-), 48 h; read-out: GI50
A498 = assay: SRB anticancer assay, renal; conditions: A498, 48 h
NCI-H322M = assay: SRB anticancer assay, non-small lung; conditions: 48 h
U251 = assay: SRB anticancer assay, CNS; conditions: U251, 48 h
M14 = assay: SRB anticancer assay, melanoma; conditions: M14, 48 h
NCI-H23 = assay: SRB anticancer assay, non-small lung; conditions: NCI-H23, 48 h
NCI-H522 = assay: SRB anticancer assay, non-small lung; conditions: NCI-H522, 48 h
A549/ATCC = assay: SRB anticancer assay, non-small lung; conditions: 48 h
UACC-62 = assay: SRB anticancer assay, melanoma; conditions: UACC-62, 48 h
IGROV1 = assay: SRB anticancer assay, ovarian; conditions: IGROV1, 48 h
MDA-MB-435 = assay: SRB anticancer assay, melanoma; conditions: MDA-MB-435, 48 h
TK-10 = assay: SRB anticancer assay, renal; conditions: TK-10, 48 h
OVCAR-4 = assay: SRB anticancer assay, ovarian; conditions: OVCAR-4, 48 h
HCT-116 = assay: SRB anticancer assay, colon; conditions: HCT-116, 48 h
HCT-15 = assay: SRB anticancer assay, colon; conditions: HCT-15, 48 h
LOX IMVI = assay: SRB anticancer assay, melanoma; conditions: 48 h

Cc1cc(-c2nc3ccccc3s2)ccc1N [Compound 3a, reference compound]
GI50 (DU-145): 61.7 µM | GI50 (UACC-257): 74.2 µM | GI50 (SR): 17.4 µM | GI50 (K-562): 6.02 µM | GI50 (HT29): 29.5 µM | GI50 (MCF7): 0.03 µM | GI50 (SK-MEL-5): 21.9 µM | GI50 (PC-3): 31.6 µM | GI50 (ACHN): 51.3 µM | GI50 (MOLT-4): 19.5 µM | GI50 (UO-31): 6.45 µM | GI50 (BT-549): 0.1 µM | GI50 (CCRF-CEM): 6.45 µM | GI50 (SNB-75): 33.1 µM | GI50 (SN12C): 50.1 µM | GI50 (COLO 205): 51.3 µM | GI50 (EKVX): 34.7 µM | GI50 (HL-60 (TB)): 8.71 µM | GI50 (SF-295): 64.6 µM | GI50 (RXF 393): 70.6 µM | GI50 (NCI-H226): 0.35 µM | GI50 (HCC-2998): 0.25 µM | GI50 (HS 578T): 66.1 µM | GI50 (NCI-H460): 53.7 µM | GI50 (MDA-MB-231/ATCC): 66.1 µM | GI50 (A498): 42.7 µM | GI50 (NCI-H322M): 43.7 µM | GI50 (U251): 66.1 µM | GI50 (M14): 57.6 µM | GI50 (NCI-H23): 58.9 µM | GI50 (NCI-H522): 32.4 µM | GI50 (A549/ATCC): 28.8 µM | GI50 (UACC-62): 70.8 µM | GI50 (IGROV1): 0.042 µM | GI50 (MDA-MB-435): 79.5 µM | GI50 (TK-10): 0.18 µM | GI50 (OVCAR-4): 0.54 µM | GI50 (HCT-116): 43.7 µM | GI50 (HCT-15): 47.9 µM | GI50 (LOX IMVI): 37.2 µM
